The values that follow come from patent US10030016B2 (Sunesis Pharmaceuticals, Inc., priority 2009, dated 2018).

One assay addresses PDK1 (Homo sapiens (Human), UniProt O15530). The assay can be described thus: PDK1 kinase assay (coupled PDK1/AKT/FAM-crosstide assay, IMAP fluorescence polarization). The assay is classed as biochemical. An outline of the steps: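 Coupled cascade: 0.75 nM PDK1 (51-359) → 10 nM AKT2 (140-467-PIFtide) → 100 nM FAM-crosstide. ATP 40 μM, 25° C, 30 min. IMAP FP (ex 485/em 530), 2 h binding. ΔmP vs conc, 4-param fit.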
(Fluorescence polarisation rises when a labelled molecule tumbles more slowly, as on binding a larger partner.)

Assay [1] has as its system phospho-akt (Thr308) in PC-3 cells. The experiment in a line: Inhibition of phospho-akt (Thr308) in PC-3 cells, MSD phospho-akt 308 ELISA kit. The assay is classed as cell-based. Conditions: Homo sapiens, 2 hours, no serum, read-out: EC50. The gist of the method: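 Read-out is MSD electrochemiluminescence of Akt phosphorylated at Thr308 in lysates of PC-3 cells treated 2 h with compound in serum-free medium. Wortmannin at 5 μM defined the low control and DMSO the high control.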
A general note: In an ELISA, binding on a coated surface is turned into a signal by an enzyme label.

The mark [2] stands for this setting: inhibition of phospo-PDK1 in vitro.
[3] abbreviates: inhibition of P308 Akt in PC-3 cells, MSD.
Setting [4] is: inhibition of P308 Akt in PC-3 cells using MSD.
Setting [5] is: PC-3, 2 h, inhibition of P308 Akt in PC-3 cells, MSD.

The term IC50 denotes the concentration needed to halve the response being measured. A low value points to higher potency. What is called EC50 is the concentration at which the effect is half-maximal.

Where a name gives a salt, the structure may show the parent alone. Read-outs that look alike come from different tables or passages of the source.

Sequence of PDK1 (O15530 51-359): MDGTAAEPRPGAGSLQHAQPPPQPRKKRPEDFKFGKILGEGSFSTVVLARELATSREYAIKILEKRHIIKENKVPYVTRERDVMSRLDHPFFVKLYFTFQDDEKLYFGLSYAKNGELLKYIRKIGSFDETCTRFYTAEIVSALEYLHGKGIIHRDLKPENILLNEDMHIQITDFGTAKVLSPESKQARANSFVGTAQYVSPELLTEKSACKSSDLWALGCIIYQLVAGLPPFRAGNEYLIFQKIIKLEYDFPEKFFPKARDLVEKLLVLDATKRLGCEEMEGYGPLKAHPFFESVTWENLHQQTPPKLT

At PDK1 (setting [2]), `O=C1Nc2cc(/C=C/CNc3ncccc3C(=O)NCc3cncc(F)c3)ccc2/C1=C/c1cnc[nH]1` [Example 15.15, 2-((E)-3-((Z)-3-((1H-imidazol-5-yl)methylene)-2-oxoindolin-6-yl)allylamino)-N-((5-fluoropyridin-3-yl)methyl) nicotinamide] came in with an IC50 of under 100 nM. The EC50 in assay [1] (setting [3]) is under 1000 nM.
`Nc1n[nH]c2ncc(-c3ccc(CNc4ncc(C(F)(F)F)cc4C(=O)Nc4ccccc4)cc3)cc12` [Example 292, 2-(4-(3-amino-1H-pyrazolo [3,4-b]pyridin-5-yl)benzylamino)-N-phenyl-5-(trifluoromethyl)nicotinamide] came in with an IC50 against PDK1 (inhibition of PDK1 in vitro) of under 100 nM. In assay [1] (setting [4]), the EC50 is under 1000 nM.
Regarding `C[C@H](NC(=O)c1cc(C(F)(F)F)cnc1NCc1ccc(-c2cnc(N)cn2)cc1)c1ccc(F)cc1` [Example 379, (S)-2-(4-(5-aminopyrazin-2-yl)benzylamino)-N-(1-(4-fluorophenyl)ethyl)-5-(trifluoromethyl)nicotinamide], on PDK1 (inhibition of PDK1 in vitro), the IC50 is under 100 nM. Also, the EC50 in assay [1] (setting [4]) is under 1000 nM.
Taken in the same sequence, the figures for `CNC(=O)c1cc(-c2ccc(CNc3ncc(C#N)cc3C(=O)N[C@@H](C)c3ccc(F)cc3)cc2)cnc1N` [Example 203, (S)-2-amino-5-(4-((5-cyano-3-(1-(4-fluorophenyl)ethylcarbamoyl)pyridin-2-ylamino)methyl)phenyl)-N-methylnicotinamide] were under 100 nM and under 1000 nM.
At PDK1 (setting [2]), `N#Cc1ccc(NC(=O)c2cccnc2NCc2ccc(-c3ccc4ncnc(N)c4c3)s2)cc1` [Example 3.33, 2-({[5-(4-aminoquinazolin-6-yl)thiophen-2-yl]methyl}amino)-N-(4-cyanophenyl)pyridine-3-carboxamide (TFA salt)] registered an IC50 of 100 to 1000 nM. In addition, the EC50 in assay [1] (setting [5]) is over 10000 nM.
In turn, `C[C@H](NC(=O)c1cccnc1NCc1ccc(-c2c[nH]c(=O)c3ccccc23)s1)c1ccc(F)cc1` [Example 2.9, (S)-N-(1-(4-fluorophenyl)ethyl)-2-(((5-(1-oxo-1,2-dihydroiso-quinolin-4-yl)thiophen-2-yl)methyl)amino)nicotinamide] had an IC50 against PDK1 (setting [2]) of 1000 to 5000 nM. Further, in assay [1] (setting [5]), the EC50 was 1000 to 10000 nM.
With `CC(C)[C@H](NC(=O)c1cccnc1NCc1ccc(-c2ccc3ncnc(N)c3c2)s1)c1cccc(F)c1` [Example 3.44, (S)-2-((5-(4-aminoquinazolin-6-yl)thiophen-2-yl)methylamino)-N-(1-(3-fluorophenyl)-2-methylpropyl)nicotinamide (TFA salt)], on PDK1 (setting [2]), the IC50 is 100 to 1000 nM. Moreover, the EC50 in assay [1] (setting [3]) was in the range of 1000 to 10000 nM.
The compound `C[C@H](NC(=O)c1nc(C#N)cnc1NCc1ccc(-c2cnc(N)c(O[C@@H]3CCC[C@H]3N)n2)cc1)c1ccc(F)c(F)c1` [Example 172, 3-{4-[5-Amino-6-((1R,2R)-2-amino-cyclopentyloxy)-pyrazin-2-yl]-benzylamino}-6-cyano-pyrazine-2-carboxylic acid [(S)-1-(3,4-difluoro-phenyl)-ethyl]-amide] showed an IC50 at PDK1 (inhibition of PDK1 in vitro) of under 100 nM. In assay [1] (setting [4]), the EC50 was in the range of 1000 to 10000 nM.
Taken in the same sequence, the figures for `C[C@H](NC(=O)c1cc(C#N)cnc1NCc1ccc(-c2cnc(N)c(C(=O)N(C)C)c2)cc1)c1ccc(F)cc1` [Example 205, (S)-2-amino-5-(4-((5-cyano-3-(1-(4-fluorophenyl)ethylcarbamoyl)pyridin-2-ylamino)methyl)phenyl)-N,N-dimethylnicotinamide] were 100 to 1000 nM and 1000 to 10000 nM.
The like results for `C[C@H](NC(=O)c1cc(C#N)cnc1NCc1ccc(-c2cnc(N)cn2)cc1)c1ccc(F)cc1` [Example 120, (S)-2-(4-(5-amino-pyrazin-2-yl)benzylamino)-5-cyano-N-(1-(4-fluorophenyl)ethyl) nicotinamide] were, in that order, under 100 nM and under 1000 nM.
The compound `Nc1ncnc2ccc(-c3ccc(CNc4ncccc4C(=O)NCCN4CCCC4)s3)cc12` [Example 3.36, 2-({[5-(4-aminoquinazolin-6-yl)thiophen-2-yl]methyl}amino)-N-[2-(pyrrolidin-1-yl)ethyl] pyridine-3-carboxamide (TFA salt)] showed an IC50 against PDK1 (setting [2]) of over 5000 nM. Besides, the EC50 in assay [1] (setting [3]) was in the range of 1000 to 10000 nM.
Compound `C[C@H](NC(=O)c1cc(C#N)cnc1N[C@H](CC(=O)O)c1ccc(-c2c[nH]c3ncnc(N)c23)cc1)c1ccc(F)cc1` [Example 45, (R)-3-(4-(4-amino-7H-pyrrolo[2,3-d]pyrimidin-5-yl)phenyl)-3-(5-cyano-3-((S)-1-(4-fluorophenyl)ethylcarbamoyl)pyridin-2-ylamino)propanoic acid] returned an IC50 against PDK1 (inhibition of PDK1 in vitro) of 100 to 1000 nM. Further, the EC50 in assay [1] (PC-3, 2 h, inhibition of P308 Akt in PC-3 cells using MSD) is over 10000 nM.
Regarding `Nc1ncnc2ccc(-c3ccc(CNc4ncc(OCc5ccccc5)cc4C(=O)NCc4ccc(F)c(F)c4)s3)cc12` [Ex. 8.1.1, 2-({[5-(4-aminoquinazolin-6-yl)thiophen-2-yl]methyl}amino)-5-(benzyloxy)-N-(3,4-difluorobenzyl)pyridine-3-carboxamide], the IC50 against PDK1 (setting [2]) was under 100 nM. Also, in assay [1] (setting [3]), the EC50 lay within 1000 to 10000 nM.
On to `Nc1ccc(-c2ccc(CNc3ncccc3C(=O)NCc3cncc(F)c3)cc2)cn1` [Example 373, 2-(4-(6-aminopyridin-3-yl)benzylamino)-N-((5-fluoropyridin-3-yl)methyl)nicotinamide], for which the IC50 against PDK1 (inhibition of PDK1 in vitro) was 1000 to 5000 nM. Moreover, the concentration giving a half-maximal response (EC50) in assay [1] (setting [4]) fell in the range of 1000 to 10000 nM.
The like results for `C[C@H](NC(=O)c1nc(C#N)cnc1NCc1ccc(-c2cnc(N)c(OCCN)n2)cc1)c1ccc(F)c(F)c1` [Example 167, 3-{4-[5-Amino-6-(2-amino-ethoxy)-pyrazin-2-yl]-benzylamino}-6-cyano-pyrazine-2-carboxylic acid [(S)-1-(3,4-difluoro-phenyl)-ethyl]-amide] were, in that order, under 100 nM and under 1000 nM.
For `C[C@H](NC(=O)c1nc(C#N)cnc1N[C@@H](CO)c1ccc(-c2cnc3[nH]nc(N)c3c2)cc1)c1ccc(F)c(F)c1` [Example 351, 3-((R)-1-(4-(3-amino-1H-pyrazolo[3,4-b]pyridin-5-yl)phenyl)-2-hydroxy-ethylamino)-6-cyano-N-((S)-1-(3,4-difluorophenyl)ethyl)pyrazine-2-carboxamide], the IC50 at PDK1 (inhibition of PDK1 in vitro) fell in the range of 1000 to 5000 nM. The EC50 in assay [1] (setting [4]) is over 10000 nM.
Taken in the same sequence, the figures for `Cc1cc(F)ccc1NC(=O)c1cc(C(F)(F)F)cnc1NCc1ccc(-c2cnc3[nH]nc(N)c3c2)cc1` [Example 295, 2-(4-(3-amino-1H-pyrazolo [3,4-b]pyridin-5-yl)benzylamino)-N-(4-fluoro-2-methylphenyl)-5-(trifluoromethyl)nicotinamide] were under 100 nM and under 1000 nM.
`Cn1cnc2cnc3ccc(-c4ccc(CNc5ncccc5C(=O)NCc5cncc(F)c5)s4)cc3c21` [Example 354, N-((5-fluoropyridin-3-yl)methyl)-2-((5-(1-methyl-1H-imidazo[4,5-c]quinolin-8-yl)thiophen-2-ylmethyl)amino)nicotinamide] came in with an IC50 against PDK1 (inhibition of PDK1 in vitro) of under 100 nM. Also, the EC50 in assay [1] (setting [4]) is under 1000 nM.
For the compound `C[C@H](NC(=O)c1cccnc1NCc1ccc(-c2ccc3ncc(-n4ccnc4)nc3c2)s1)c1ccc(F)c(F)c1` [Example 4.29, (S)-2-(((5-(3-(1H-imidazol-1-yl)quinoxalin-6-yl)thiophen-2-yl)methyl)amino)-N-(1-(3,4-difluorophenyl)ethyl) nicotinamide], the IC50 at PDK1 (setting [2]) is over 5000 nM. The EC50 in assay [1] (setting [3]) is over 10000 nM.
Turning to `Nc1ncnc2ccc(-c3ccc(CNc4ncccc4C(=O)NCc4cc(F)c(F)cc4F)s3)cc12` [Example 3.11, 2-({[5-(4-aminoquinazolin-6-yl)thiophen-2-yl]methyl}amino)-N-(2,4,5-trifluorobenzyl)pyridine-3-carboxamide (TFA salt)], the IC50 on PDK1 (setting [2]) is under 100 nM. Moreover, the EC50 in assay [1] (setting [3]) was over 10000 nM.
At PDK1 (inhibition of PDK1 in vitro), `CNc1ccc(-c2ccc(CNc3ncc(C#N)cc3C(=O)N[C@@H](C)c3ccc(F)cc3)cc2)cn1` [Example 141] registered an IC50 of under 100 nM. The EC50 in assay [1] (setting [4]) lay within 1000 to 10000 nM.
The like results for `CNc1ncc2cc(C#CCNc3ncc(C#N)cc3C(=O)N[C@@H](C)c3ccc(F)cc3)ccc2n1` [Example 255, (S)-5-cyano-N-(1-(4-fluorophenyl)ethyl)-2-(3-(2-(methylamino)quinazolin-6-yl)prop-2-ynylamino)nicotinamide] were, in that order, under 100 nM and under 1000 nM.
The like results for `O=C(NCc1ccc(F)c(F)c1)c1cc(C(F)(F)F)cnc1NCc1ccc(-c2cnc(NCCO)cn2)cc1` [Example 229, N-(3,4-difluorobenzyl)-2-(4-(5-(2-hydroxyethylamino)pyrazin-2-yl)benzylamino)-5-(trifluoromethyl)nicotinamide] were, in that order, 100 to 1000 nM and 1000 to 10000 nM.
The like results for `C[C@H](NC(=O)c1cc(C#N)cnc1NCc1ccc(-c2cnc(N)c(C(=O)NC3CC3)n2)cc1)c1ccc(F)cc1` [Example 218, (S)-3-amino-6-(4-((5-cyano-3-(1-(4-fluorophenyl)ethylcarbamoyl)pyridin-2-ylamino)methyl)phenyl)-N-cyclopropylpyrazine-2-carboxamide] were, in that order, under 100 nM and under 1000 nM.
